According to PMC9112550, “Optimization of the antimicrobial peptide Bac7 by deep mutational scanning” (BMC Biology, 2022):

Experiments:
E. coli ATCC 25922 = assay: In vivo efficacy, murine septicemia model; conditions: 30 mg kg^−1 IP once (1 h post-infection); 10 CD-1 mice; positive control
Description: CD-1 mice (7 weeks old, 27–28 g female) were used (Charles River, France). These animals were housed for a week of acclimation period before the experiment in a protected area in the ‘Centre de Zootechnie de l’Université de Bourgogne’ (Biosafety level 2 facility) and fed ad libitum according to the current recommendations by the European Institute of Health. Housing took place in rooms where a 12-h/12 h light/dark cycle is applied, the temperature ranges from 18 to 21°C and the relative humidity from 45 to 65%. The animal facility is authorized by the French authorities (Agreement N° C 21 464 04 EA). […]
For animal experiments, Bac7PS was synthesized at Genscript as acetate salt and with a purity of 92%. […] First, the maximum tolerated dose (MTD) for the peptide was determined by testing different peptide doses in 8 groups with 5 animals per group. The peptide solution was administered once by intraperitoneal (IP) injection with a volume of between 94 and 240 μl (depending on the weight of the animal and the dosage) and the animals were monitored for 2 h following the injection, then 6 to 8 h later, and then once or twice a day, depending on the clinical status, up to 5 days post-injection. […] As endpoint, the wellbeing and survival rate, on a twice daily based evaluation for up to 3 days, was monitored.

bacteria = conditions: cited from earlier work
Text: One of the most intensively researched proline-rich AMPs is bactenecin-7 (Bac7). It is a 60 amino acid long linear peptide that was first isolated from bovine neutrophils. […] Measuring the antimicrobial activity of heavily mutated variants was valuable to determine the sequence-activity relationship of Bac7_1-23 because (i) the activity of specific amino acid res ... || Bac7PS excelled over Bac7_1-23 in terms of antimicrobial activity against clinical isolates including MDR bacteria and a decreased dependency on the SbmA transporter (Fig. 4a; Table 2). […] We mainly attribute the activity gain to the increased ability to penetrate membranes, which was accompanied by a slight increase in membrane damage at higher concentrations compared to Bac7_1-23 (Fig. 4b; Additional file 1 ...

E. coli TOP10 = assay: Deep mutational scanning, site-saturation Bac7_1-23 library, intracellular self-screening with NGS; assay type: cell-based; conditions: induction vs 4.5 h, n = 3, more negative = more antimicrobial
Description: A focused strategy was pursued to generate diversity at positions 5, 18, 19, and 20 in the Bac7_1-23 peptide. […] Degeneration was introduced by using the QuikChange technique, amplifying the pBAD plasmid containing the Bac7_1-23 gene using a mixture of 20 oligonucleotides (Additional file 1: Table S1) at a final concentration of 0.3 μM and Phusion® High-Fidelity PCR Master Mix in HF buffer. The amplification was performed using 20 cycles of 98°C for 10 s, 60°C for 15 s, and 72°C for 10 s. The PCR product was treated with the enzyme Dpn1 to remove the template plasmid and subsequently purified. The purified product was used to transform 20 μl of CloneCatcher™ Gold DH5G Electrocompetent E. coli (Genlantis, Burlington, USA) cells using electroporation.
To assess the antimicrobial activity of multiple peptides in parallel when expressed intracellularly in E. coli TOP10, previously prepared aliquots containing E. coli plasmid libraries created by either random mutagenesis or site-saturation mutagenesis were used. For both approaches, three aliquots containing approximately 500 million cells each of E. coli TOP10 harboring peptide-encoding DNA sequences on the pBAD plasmid were thawed and added to three 1-l baffled shake flasks containing 100 ml of LB medium + 100 μg ml^−1 carbenicillin. The cultures were grown for roughly 7 h at 37°C.

Compound: O=C(O)c1cn(C2CC2)c2cc(N3CCNCC3)c(F)cc2c1=O [ciprofloxacin]
- survival (E. coli ATCC 25922): survival of all mice

Compound: Bac7_1-15: Bac7_1-15 (RRIRPRPPRLPRPRP; Bactenecin-7; UniProt P19661 131-145, looked up, fragment)
- antimicrobial activity (bacteria): loss of antimicrobial activity

Compound: RRIRDRPPRLPRPRPRPIKDPRP [site-saturation library peptide ID 5521]
- lfcShrink4 (shrunken log2-fold change of abundance of peptide-encoding DNA) (E. coli TOP10): -4
